The text below walks through data of patent publication US20230141600A1, “IMIDAZOPYRAZINE DERIVATIVES” (priority 2020, published 2023).

Where a name gives a salt, the structure may show the parent alone.

For one experiment, the system named is Acinetobacter baumannii ATCC17961. In words: 90% growth inhibitory concentration (IC90) determination, antimicrobial susceptibility testing. The experiment is classed as cell-based. The conditions noted are these: Acinetobacter baumannii, ATCC17961, 16 h, 90% growth inhibition, Iso-Sensitest broth, OD 600 nm over 16 h, 35±2° C.; read-out: ATCC 17961 IC90. The method, boiled down: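 Twofold serial dilutions (e.g. 50 to 0.097 μM final) in Iso-Sensitest broth, inoculated at ~5×10^5 CFU/ml and incubated at 35±2 °C for 16 h with OD600 read every minute. IC90 taken from growth inhibition during the logarithmic phase.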
As for `CCc1cc(Nc2nccn3c(-c4ccc(OC)c(F)c4F)cnc23)ccc1C(=O)NCC1CC[N+](C)(CC(=O)O)CC1` (stereo not drawn) [Example 115, 2-[4-[[[4-[[3-(2,3-Difluoro-4-methoxy-phenyl)imidazo[1,2-a]pyrazin-8-yl]amino]-2-ethyl-benzoyl]amino]methyl]-1-methyl-piperidin-1-ium-1-yl]acetic acid 2,2,2-trifluoroacetate], the IC90 (as a rule, the concentration needed for an effect of 90%) stood at 205 nM.

On to `C[N+]1(CC2CCNC2)CCC(C(=O)N2CCN(C(=O)c3ccc(Nc4nccn5c(-c6ccc(OC(F)F)c(F)c6F)cnc45)cc3Cl)CC2)CC1` (stereo not drawn) [Example 116, [2-Chloro-4-[[3-[4-(difluoromethoxy)-2,3-difluoro-phenyl]imidazo[1,2-a]pyrazin-8-yl]amino]phenyl]-[4-[1-methyl-1-(pyrrolidin-3-ylmethyl)piperidin-1-ium-4-carbonyl]piperazin-1-yl]methanone Formate], for which the IC90 was determined as 81.1 nM.

Turning to `C[N+]1(CC2CCNC2)CCC(C(=O)NCCCNC(=O)c2ccc(Nc3nccn4c(-c5ccc(OC(F)F)c(F)c5F)cnc34)cc2Cl)CC1` (stereo not drawn) [Example 117, N-[3-[[2-Chloro-4-[[3-[4-(difluoromethoxy)-2,3-difluoro-phenyl]imidazo[1,2-a]pyrazin-8-yl]amino]benzoyl]amino]propyl]-1-methyl-1-(pyrrolidin-3-ylmethyl)piperidin-1-ium-4-carboxamide Formate], the IC90 turned out to be 157 nM.

Regarding `CCc1cc(Nc2nccn3c(-c4ccc(Oc5ncccn5)c(F)c4F)cnc23)ccc1C(=O)NCC1CC[N+](C)(CC2CCNC2)CC1` (stereo not drawn) [Example 118, 4-[[3-(2,3-Difluoro-4-pyrimidin-2-yloxy-phenyl)imidazo[1,2-a]pyrazin-8-yl]amino]-2-ethyl-N-[[1-methyl-1-(pyrrolidin-3-ylmethyl)piperidin-1-ium-4-yl]methyl]benzamide Formate], the IC90 was determined as 832 nM.

Consider `CCc1cc(Nc2nccn3c(-c4ccc(OC(F)F)c(F)c4F)cnc23)ccc1C(=O)N1CC[N+](C)(CC2CCNC2)CC1` (stereo not drawn) [Example 119, [4-[[3-[4-(Difluoromethoxy)-2,3-difluoro-phenyl]imidazo[1,2-a]pyrazin-8-yl]amino]-2-ethyl-phenyl]-[4-methyl-4-(pyrrolidin-3-ylmethyl)piperazin-4-ium-1-yl]methanone Formate], for which the IC90 was determined as 1700 nM.

Consider `CCc1cc(Nc2nccn3c(-c4ccc(OC)c(F)c4F)cnc23)ccc1C(=O)N[C@H]1C[C@@H](NC(=O)C2CC[N+](C)(CC3CNC3)CC2)C1` (stereo partly drawn) [Example 126, 1-(Azetidin-3-ylmethyl)-N-[3-[[4-[[3-(2,3-difluoro-4-methoxy-phenyl)imidazo[1,2-a]pyrazin-8-yl]amino]-2-ethyl-benzoyl]amino]cyclobutyl]-1-methyl-piperidin-1-ium-4-carboxamide formate 2,2,2-trifluoroacetate (Mixed Salt)], for which the 90% effect concentration (IC90) was 111 nM.

As to `CCc1cc(Nc2nccn3c(-c4ccc(OC)c(F)c4F)cnc23)ccc1C(=O)NCC1CC(NC(=O)C2CC[N+](C)(CC3CNC3)CC2)C1` (stereo not drawn) [Example 127, 1-(Azetidin-3-ylmethyl)-N-[3-[[[4-[[3-(2,3-difluoro-4-methoxy-phenyl)imidazo[1,2-a]pyrazin-8-yl]amino]-2-ethyl-benzoyl]amino]methyl]cyclobutyl]-1-methyl-piperidin-1-ium-4-carboxamide formate 2,2,2-trifluoroacetate (Mixed Salt)], the IC90 came out at 258 nM.

For the compound `CCc1cc(Nc2nccn3c(-c4ccc(OC)c(F)c4F)cnc23)ccc1C(=O)NCC1CC[N+](CC(=O)O)(CC2CNC2)CC1` (stereo not drawn) [Example 128, 2-[1-(Azetidin-3-ylmethyl)-4-[[[4-[[3-(2,3-difluoro-4-methoxy-phenyl)imidazo[1,2-a]pyrazin-8-yl]amino]-2-ethyl-benzoyl]amino]methyl]piperidin-1-ium-1-yl]acetic acid bis(2,2,2-trifluoroacetate)], the 90% effect concentration (IC90) stood at 343 nM.

For the compound `CCc1cc(Nc2nccn3c(-c4ccc(OC)c(F)c4F)cnc23)ccc1C(=O)NCCCNC(=O)C1CC[N+](C)(CC2CNC2)CC1` (stereo not drawn) [Example 129, 1-(Azetidin-3-ylmethyl)-N-[3-[[4-[[3-(2,3-difluoro-4-methoxy-phenyl)imidazo[1,2-a]pyrazin-8-yl]amino]-2-ethyl-benzoyl]amino]propyl]-1-methyl-piperidin-1-ium-4-carboxamide bis(trifluoroacetate)], the concentration for an effect of 90% (IC90) was found to be 86.2 nM.

Turning to `CCc1cc(Nc2nccn3c(-c4ccc(OC)c(F)c4F)cnc23)ccc1C(=O)NCCCNC(=O)C[C@@H]1CC[N+](C)(CC2CNC2)C1` (stereo partly drawn) [Example 130, N-[3-[[2-[(3S)-1-(Azetidin-3-ylmethyl)-1-methyl-pyrrolidin-1-ium-3-yl]acetyl]amino]propyl]-4-[[3-(2,3-difluoro-4-methoxy-phenyl)imidazo[1,2-a]pyrazin-8-yl]amino]-2-ethyl-benzamide bis(2,2,2-trifluoroacetate)], the IC90 is 108 nM.

Take `CCc1cc(Nc2nccn3c(-c4ccc(OC)c(F)c4F)cnc23)ccc1C(=O)NCCCNC(=O)CC1CC[N+](C)(CC2CNC2)CC1` (stereo not drawn) [Example 131, N-[3-[[2-[1-(Azetidin-3-ylmethyl)-1-methyl-piperidin-1-ium-4-yl]acetyl]amino]propyl]-4-[[3-(2,3-difluoro-4-methoxy-phenyl)imidazo[1,2-a]pyrazin-8-yl]amino]-2-ethyl-benzamide bis(2,2,2-trifluoroacetate)]: the IC90 came out at 114 nM.

With `CCc1cc(Nc2nccn3c(-c4ccc(OC)c(F)c4F)cnc23)ccc1C(=O)NCC1CC[N+](C)(CC(=O)NCC2CCNC2)CC1` (stereo not drawn) [Example 132, 4-[[3-(2,3-Difluoro-4-methoxy-phenyl)imidazo[1,2-a]pyrazin-8-yl]amino]-2-ethyl-N-[[1-methyl-1-[2-oxo-2-(pyrrolidin-3-ylmethylamino)ethyl]piperidin-1-ium-4-yl]methyl]benzamide bis(2,2,2-trifluoroacetate)], the IC90 stood at 320 nM.

For the compound `CCc1cc(Nc2nccn3c(-c4ccc(OC)c(F)c4F)cnc23)ccc1C(=O)NCC1CC[N+](C)(CC2CNC2)CC1` (stereo not drawn) [Example 134, N-[[1-(Azetidin-3-ylmethyl)-1-methyl-piperidin-1-ium-4-yl]methyl]-4-[[3-(2,3-difluoro-4-methoxy-phenyl)imidazo[1,2-a]pyrazin-8-yl]amino]-2-ethyl-benzamide; 2,2,2-trifluoroacetate bis(2,2,2-trifluoroacetate)], the IC90 was 350 nM.

For `CCc1cc(Nc2nccn3c(-c4ccc(OC)c(F)c4F)cnc23)ccc1C(=O)NCC1CC[N+](C)(CC2CC[N+](C)(C)C2)CC1` (stereo not drawn) [Example 135, 4-[[3-(2,3-Difluoro-4-methoxy-phenyl)imidazo[1,2-a]pyrazin-8-yl]amino]-N-[[1-[(1,1-dimethylpyrrolidin-1-ium-3-yl)methyl]-1-methyl-piperidin-1-ium-4-yl]methyl]-2-ethyl-benzamide Diformate], the concentration for an effect of 90% (IC90) came out at 479 nM.

Consider `CCc1cc(Nc2nccn3c(-c4ccc(OC)c(F)c4F)cnc23)ccc1C(=O)NC1CC[N+](C)(CC2CNC2)CC1` (stereo not drawn) [Example 136, N-[1-(Azetidin-3-ylmethyl)-1-methyl-piperidin-1-ium-4-yl]-4-[[3-(2,3-difluoro-4-methoxy-phenyl)imidazo[1,2-a]pyrazin-8-yl]amino]-2-ethyl-benzamide bis(2,2,2-trifluoroacetate)], for which the 90% effect concentration (IC90) stood at 955 nM.

In the case of `CCc1cc(Nc2nccn3c(-c4c[nH]nc4C(F)(F)F)cnc23)ccc1C(=O)NCC1CC[N+](C)(CC2CNC2)C1` (stereo not drawn) [Example 138, N-[[1-(Azetidin-3-ylmethyl)-1-methyl-pyrrolidin-1-ium-3-yl]methyl]-2-ethyl-4-[[3-[3-(trifluoromethyl)-1H-pyrazol-4-yl]imidazo[1,2-a]pyrazin-8-yl]amino]benzamide bis(2,2,2-trifluoroacetate)], the concentration for an effect of 90% (IC90) was 4140 nM.

Consider `CCc1cc(Nc2nccn3c(-c4ccc(OC)c(F)c4F)cnc23)ccc1C(=O)NCCC[N+](C)(CC1CNC1)CC1CNC1` [Example 139, Bis(azetidin-3-ylmethyl)-[3-[[4-[[3-(2,3-difluoro-4-methoxy-phenyl)imidazo[1,2-a]pyrazin-8-yl]amino]-2-ethyl-benzoyl]amino]propyl]-methyl-ammonium bis(2,2,2-trifluoroacetate)], for which the concentration for an effect of 90% (IC90) was determined as 4820 nM.

Regarding `CCc1cc(Nc2nccn3c(-c4ccc(OC)c(F)c4F)cnc23)ccc1C(=O)NCC1CC[N+](CCO)(CC2CNC2)CC1` (stereo not drawn) [Example 141, N-[[1-(Azetidin-3-ylmethyl)-1-(2-hydroxyethyl)piperidin-1-ium-4-yl]methyl]-4-[[3-(2,3-difluoro-4-methoxy-phenyl)imidazo[1,2-a]pyrazin-8-yl]amino]-2-ethyl-benzamide 2,2,2-trifluoroacetate], the IC90 is 169 nM.

On to `CCc1cc(Nc2nccn3c(-c4ccc(OC)c(F)c4F)cnc23)ccc1C(=O)NCC1CC[N+](C)(CC2CCCN2)CC1` (stereo not drawn) [Example 142, 4-[[3-(2,3-Difluoro-4-methoxy-phenyl)imidazo[1,2-a]pyrazin-8-yl]amino]-2-ethyl-N-[[1-methyl-1-(pyrrolidin-2-ylmethyl)piperidin-1-ium-4-yl]methyl]benzamide 2,2,2-trifluoroacetate], for which the IC90 turned out to be 336 nM.

The same experiment, now with this note: Acinetobacter baumannii, ATCC17961, 16 h, read-out: ATCC 17961 IC90.
Regarding `CCc1cc(Nc2nccn3c(-c4ccc(OC)c(F)c4F)cnc23)ccc1C(=O)NCC1CCN(C(=O)C2CC[N+](C)(CC3CNC3)CC2)CC1` (stereo not drawn) [Example 133, N-[[1-[1-(Azetidin-3-ylmethyl)-1-methyl-piperidin-1-ium-4-carbonyl]-4-piperidyl]methyl]-4-[[3-(2,3-difluoro-4-methoxy-phenyl)imidazo[1,2-a]pyrazin-8-yl]amino]-2-ethyl-benzamide bis(2,2,2-trifluoroacetate)], the IC90 was 334 nM.

In the case of `CCc1cc(Nc2nccn3c(-c4ccc(OC)c(F)c4F)cnc23)ccc1C(=O)NCC1CC[N+](C)(Cc2cccnc2)CC1` (stereo not drawn) [Example 140, 4-[[3-(2,3-difluoro-4-methoxy-phenyl)imidazo[1,2-a]pyrazin-8-yl]amino]-2-ethyl-N-[[1-methyl-1-(3-pyridylmethyl)piperidin-1-ium-4-yl]methyl]benzamide; 2,2,2-trifluoroacetate], the 90% effect concentration (IC90) is 115 nM.
